# Measurements as given in patent publication US20240300977A1, “INHIBITORS OF DNA-DEPENDENT PROTEIN KINASE AND COMPOSITIONS AND USES THEREOF” (Intellia Therapeutics, Inc., priority 2021, published 2024).
# Values joined by “and” are separate entries in the source; they are usually repeats but may differ in a detail not shown here. Identical values can stand only once.
# How the values were obtained:
# T cells [1] = experiment: Fold T cell expansion following TRBC/TRAC editing with WT1-TCR AAV and DNA-PK inhibitors; conditions: Table 4
# T cells [2] = experiment: TRAC LNP editing and GFP insertion in activated T cells with DNA-PK inhibitors, flow cytometry; conditions: day 5 post-edit; for Mean % CD3^−/GFP+ Cells (n = 3): GFP positive of the CD3 negative T cells; for Mean % CD3^− Cells (n = 3): TRAC LNP + GFP AAV
# 697 ALL cells (697-luc2) [3] = experiment: WT1 TCR T cell mediated cytotoxicity, luciferase assay; format: cell-based, human; conditions: WT1-T cells (HD1) engineered with inhibitor, 48h, duplicate values
# Protocol: (§1) The ability of WT1-TCR T cells engineered from donors 007HD and 008HD to kill hematological cancer cells expressing natural levels of WT1 and release cytokines was evaluated. TCR KO cells generated as described above but without TRAC/AAV addition were used as a negative, non-killing control. Briefly, T cells were co-cultured with luciferase expressing 697 ALL cells (697-luc2), or K562-luc2 cells transduced to express HLA-A*02:01 (K5692-HLA-A*02:01-luc2) at various effector to target (E:T) ratios (2:1, 1:1, 0.5:1) in TCEM without the addition of IL-2, IL-7, or IL-15. […] After 24h of co-culture, supernatants from the 2:1 E:T ratio group were harvested and used in an MSD U/R-PLEX assay to quantify IL-2, TNFα, IFNγ, and Granzyme B following manufacturers protocol (Mesoscale Discovery). After 48h of co-culture luciferase activity was quantified using the Bright-GLO Luciferase Assay System (Promega) in relative luminescence units (RLU). Percent specific lysis was determined using the formula:
# (§2) % Specific Lysis=100−((RLU[Experimental Well]/RLU[Target Only Well])*100)
# [4] = tested on: K562-luc2 cells transduced to express HLA-A*02:01; experiment: as above; format: cell-based, human; conditions: WT1-T cells (HD1) engineered with inhibitor, K562-HLA-A*02:01, 48h, duplicate values
# Protocol: as §1, §2
# 697 ALL cells (697-luc2) [5] = experiment: Cytokine release by WT1 TCR T cells, MSD U/R-PLEX; format: cell-based, human; design: unit not given here; conditions: 2:1 E:T, 24h supernatant, T cells engineered with inhibitor, duplicate values
# Protocol: as §1, with “formula: […]” for “formula:”
# [6] = tested on: K562-luc2 cells transduced to express HLA-A*02:01; experiment: Cytokine release by WT1 TCR T cells, MSD U/R-PLEX; format: cell-based, human; design: unit not given here; conditions: K562-HLA-A2.1, 2:1 E:T, 24h supernatant, T cells engineered with inhibitor, duplicate values
# Protocol: as §1, with “formula: […]” for “formula:”
# T cells [7] = experiment: Off-target structural variation by UnIT; format: cell-based, human; conditions: T cells from Example 12, day 8 post-editing; TRAC sgRNA G013006
# Excerpt: (§3) On day 8 post-editing, T cells from Example 12 from the untreated, unedited, Compound 3 and Compound 4 guides samples were collected, spun down and the pellets were directly used as input material for gDNA isolation using “Zymo Quick DNA/RNA Mag Beads Kit” (Zymo Cat. R2131). The UnIT structural variant characterization assay was applied to these gDNA samples. High molecular weight genomic DNA is simultaneously fragmented and sequence-tagged (‘tagmented’) with the Tn5 transposase and an adapter with a partial Illumina P5 sequence and a 12 bp unique molecular identifier (UMI). Two sequential PCRs using a primer to P5 and hemi-nested gene specific primers (GSP) imparting the Illumina the P7 sequence to create two Illumina compatible NGS libraries per sample (Illumina, Ref 15033624). Sequencing across both directions of the CRISPR/Cas9 targeted cut site with the two libraries allows the inference and quantification of structural variants in DNA repair outcomes after genome editing. If the two fragments were aligned to different chromosomes, the SV was classified as an “inter-chromosomal translocation.” The magnitude of structural variation was shown in FIG. 9A and Table 18.
# T cells [8] = experiment: Insertion percent in T cells of Example 17; format: cell-based, human; conditions: T cells from Example 12; FIG. 9B
# Excerpt: as §3
# TRAC = conditions: human
# TRBC = experiment: Off-target site validation, rhAmpSeq; conditions: gRNA G016239 targeting TRBC; of 92 off-target sites; with the named DNA-PKI or none
smiles,measurement,setting,value
"Cc1cc2ncnn2cc1Nc1cc2c(cn1)n(C)c(=O)n2C1CCOCC1 [Compound 6, 3-methyl-6-((7-methyl-[1,2,4]triazolo[1,5-a]pyridin-6-yl)amino)-1-(tetrahydro-2H-pyran-4-yl)-1,3-dihydro-2H-imidazo[4,5-c]pyridin-2-one]",impact of T cell expansion by DNA-PK treatment,T cells [1],no impact
same,Mean % CD3^−/GFP+ Cells (n = 3),T cells [2]; compound 0.0625 uM,35.10%
same,Mean % CD3^− Cells (n = 3),T cells [2]; compound 0.0625 uM,33.87%
same,Mean % CD3^−/GFP+ Cells (n = 3),T cells [2]; compound 1 uM,74.40%
same,Mean % CD3^− Cells (n = 3),T cells [2]; compound 1 uM,58.30%
"Cc1cc2ncnn2cc1Nc1ncc2c(n1)n(C1CC(O)C1)c(=O)n2C (stereo not shown) [Compound 5, 9-(3-hydroxycyclobutyl)-7-methyl-2-((7-methyl-[1,2,4]triazolo[1,5-a]pyridin-6-yl)amino)-7,9-dihydro-8H-purin-8-one]",Mean % CD3^−/GFP+ Cells (n = 3),T cells [2]; compound 0.0625 uM,53.00%
same,Mean % CD3^−/GFP+ Cells (n = 3),T cells [2]; compound 1 uM,78.97%
"CCn1c(=O)n(C2CCOCC2)c2nc(Nc3cn4ncnc4cc3C)ncc21 [Compound 2, 7-ethyl-2-((7-methyl-[1,2,4]triazolo[1,5-a]pyridin-6-yl)amino)-9-(tetrahydro-2H-pyran-4-yl)-7,9-dihydro-8H-purin-8-one]",Mean % CD3^−/GFP+ Cells (n = 3),T cells [2]; compound 0.0625 uM,47.93%
same,Mean % CD3^−/GFP+ Cells (n = 3),T cells [2]; compound 1 uM,79.40%
"Cc1cc2ncnn2cc1Nc1ncc2c(n1)n(C1CCC(F)(F)CC1)c(=O)n2C [Compound 3, 9-(4,4-difluorocyclohexyl)-7-methyl-2-((7-methyl-[1,2,4]triazolo[1,5-a]pyridin-6-yl)amino)-7,9-dihydro-8H-purin-8-one]",Percent specific lysis,"697 ALL cells (697-luc2) [3]; E:T 0.5, donor 007HD",4.60% and 2.72%
same,Percent specific lysis,"697 ALL cells (697-luc2) [3]; E:T 0.5, donor 008HD",63.10% and 72.62%
same,Percent specific lysis,"697 ALL cells (697-luc2) [3]; E:T 1, donor 007HD",39.43% and 30.39%
same,Percent specific lysis,"697 ALL cells (697-luc2) [3]; E:T 1, donor 008HD",95.29% and 94.31%
same,Percent specific lysis,"697 ALL cells (697-luc2) [3]; E:T 2, donor 007HD",77.64% and 65.49%
same,Percent specific lysis,"697 ALL cells (697-luc2) [3]; E:T 2, donor 008HD",98.98% and 98.97%
same,Percent specific lysis,"[4]; E:T 0.5, donor 007HD",47.03% and 41.52%
same,Percent specific lysis,"[4]; E:T 0.5, donor 008HD",72.45% and 71.77%
same,Percent specific lysis,"[4]; E:T 1, donor 007HD",78.53% and 75.83%
same,Percent specific lysis,"[4]; E:T 1, donor 008HD",98.67% and 99.08%
same,Percent specific lysis,"[4]; E:T 2, donor 007HD",98.79% and 96.99%
same,Percent specific lysis,"[4]; E:T 2, donor 008HD",99.96% and 99.84%
same,Granzyme B,697 ALL cells (697-luc2) [5]; donor 007HD,1441.06 and 1664.25
same,IFN-gamma,697 ALL cells (697-luc2) [5]; donor 007HD,923.97 and 977.71
same,IL-2,697 ALL cells (697-luc2) [5]; donor 007HD,2.23 and 4.32
same,TNF-alpha,697 ALL cells (697-luc2) [5]; donor 007HD,5.29 and 3.46
same,Granzyme B,697 ALL cells (697-luc2) [5]; donor 008HD,1777.28 and 1609.68
same,IFN-gamma,697 ALL cells (697-luc2) [5]; donor 008HD,7169.43 and 6733.05
same,IL-2,697 ALL cells (697-luc2) [5]; donor 008HD,8.1 and 7.14
same,TNF-alpha,697 ALL cells (697-luc2) [5]; donor 008HD,18.57 and 16.3
same,Granzyme B,[6]; donor 007HD,17178.54 and 20713.6
same,IFN-gamma,[6]; donor 007HD,41527.06 and 59686.42
same,TNF-alpha,[6]; donor 007HD,66.56 and 73.76
same,Granzyme B,[6]; donor 008HD,17134.42 and 18197.02
same,IFN-gamma,[6]; donor 008HD,200584.6 and 216197.4
same,IL-2,[6]; donor 008HD,484.52 and 524.89
same,TNF-alpha,[6]; donor 008HD,302.06 and 324.18
same,Unintended Structural Variance (Average),T cells [7],1.30%
same,Insertion Percent (Average),T cells [8],68.35%
same,Sites Validated,TRAC,0
same,Sites Validated,TRBC,0
same,Mean % CD3^−/GFP+ Cells (n = 3),T cells [2]; compound 0.0625 uM,75.50%
same,Mean % CD3^− Cells (n = 3),T cells [2]; compound 0.0625 uM,50.73%
same,Mean % CD3^−/GFP+ Cells (n = 3),T cells [2]; compound 1 uM,79.60%
same,Mean % CD3^− Cells (n = 3),T cells [2]; compound 1 uM,58.90%
"Cc1cc2ncnn2cc1Nc1ncc2c(n1)n(C1CCOCC1)c(=O)n2C [Compound 1, 7-methyl-2-((7-methyl-[1,2,4]triazolo[1,5-a]pyridin-6-yl)amino)-9-(tetrahydro-2H-pyran-4-yl)-7,9-dihydro-8H-purin-8-one]",Percent specific lysis,"697 ALL cells (697-luc2) [3]; E:T 0.5, donor 007HD",12.14% and 5.54%
same,Percent specific lysis,"697 ALL cells (697-luc2) [3]; E:T 0.5, donor 008HD",43.47% and 44.29%
same,Percent specific lysis,"697 ALL cells (697-luc2) [3]; E:T 1, donor 007HD",29.28% and 30.44%
same,Percent specific lysis,"697 ALL cells (697-luc2) [3]; E:T 1, donor 008HD",77.92% and 81.24%
same,Percent specific lysis,"697 ALL cells (697-luc2) [3]; E:T 2, donor 007HD",65.54% and 61.43%
same,Percent specific lysis,"697 ALL cells (697-luc2) [3]; E:T 2, donor 008HD",98.09% and 98.25%
same,Percent specific lysis,"[4]; E:T 0.5, donor 007HD",37.10% and 36.80%
same,Percent specific lysis,"[4]; E:T 0.5, donor 008HD",56.76% and 58.18%
same,Percent specific lysis,"[4]; E:T 1, donor 007HD",69.32% and 70.95%
same,Percent specific lysis,"[4]; E:T 1, donor 008HD",83.56% and 79.54%
same,Percent specific lysis,"[4]; E:T 2, donor 007HD",95.40% and 92.50%
same,Percent specific lysis,"[4]; E:T 2, donor 008HD",99.29% and 99.66%
"Cc1cc2ncnn2c(C)c1Nc1cc2c(cn1)n(C)c(=O)n2C1CCOCC1 [Compound 7, 6-((5,7-dimethyl-[1,2,4]triazolo[1,5-a]pyridin-6-yl)amino)-3-methyl-1-(tetrahydro-2H-pyran-4-yl)-1,3-dihydro-2H-imidazo[4,5-c]pyridin-2-one]",impact of T cell expansion by DNA-PK treatment,T cells [1],no impact
same,Mean % CD3^−/GFP+ Cells (n = 3),T cells [2]; compound 0.0625 uM,29.90%
same,Mean % CD3^−/GFP+ Cells (n = 3),T cells [2]; compound 1 uM,43.43%
"Cc1cc2ncnn2c(C)c1Nc1ncc2c(n1)n(C1CCOCC1)c(=O)n2C [Compound 8, 2-((5,7-dimethyl-[1,2,4]triazolo[1,5-a]pyridin-6-yl)amino)-7-methyl-9-(tetrahydro-2H-pyran-4-yl)-7,9-dihydro-8H-purin-8-one]",impact of T cell expansion by DNA-PK treatment,T cells [1],no impact
same,Mean % CD3^−/GFP+ Cells (n = 3),T cells [2]; compound 0.0625 uM,32.23%
same,Mean % CD3^−/GFP+ Cells (n = 3),T cells [2]; compound 1 uM,70.07%
"Cc1cc2ncnn2cc1Nc1ncc2c(c1C)n(C1CCOCC1)c(=O)n2C [Compound 9, 3,7-dimethyl-6-((7-methyl-[1,2,4]triazolo[1,5-a]pyridin-6-yl)amino)-1-(tetrahydro-2H-pyran-4-yl)-1,3-dihydro-2H-imidazo[4,5-c]pyridin-2-one]",Mean % CD3^−/GFP+ Cells (n = 3),T cells [2]; compound 0.0625 uM,28.27%
same,Mean % CD3^−/GFP+ Cells (n = 3),T cells [2]; compound 1 uM,27.83%
